# Results reported in patent US8295924B2, “Transdermal systems for the delivery of ionic agents directly to open wounds and surgically repaired incisions” (Teikoku Pharma USA, Inc., priority 2006, dated 2012).
# Conditions: hairless rats, pad saturated with 4% lidocaine, 2 cm^2 delivery pad, 0.3 mA for 24 hours, active iontophoretic probe; for the entire 24-hour period
# Description: An incision was made in hairless rats, which was then sutured closed.
smiles,measurement,value
CCN(CC)CC(=O)Nc1c(C)cccc1C [lidocaine],Concentration of lidocaine generated in the incision,sufficient to cause anesthesia
